Assay results taken from ChEMBL document CHEMBL1201862, “PubChem BioAssay data set” (2004).
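Growth conditions: 96-well plates. Treatment: test compound, 48 hours, 5 concentrations. Analysis: linear interpolation between bracketing concentrations; unreached endpoints set to highest concentration. At the GI50, growth is halved.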 Calls of active or inactive are those of the source. Cut-off read from the data, not from the text of the source: active = GI50 up to about 1.1 µM and inactive = higher.

Experiments:
Assay in all cases: NCI-60 cell line screen, 48 h
786-0 = tested on: 786-0
HCT-116 = tested on: HCT-116
SF-539 = tested on: SF-539
MDA-MB-435 = tested on: MDA-MB-435
MOLT-4 = tested on: MOLT-4
NCI-H226 = tested on: NCI-H226
UO-31 = tested on: UO-31
ACHN = tested on: ACHN
CAKI-1 = tested on: CAKI-1
NCI-H460 = tested on: NCI-H460
RXF 393 = tested on: RXF 393
M14 = tested on: M14
HT-29 = tested on: HT-29
COLO 205 = tested on: COLO 205
MDA-MB-231 = tested on: MDA-MB-231
RPMI-8226 = tested on: RPMI-8226
SW-620 = tested on: SW-620
K562 = tested on: K562
A549 = tested on: A549
T47D = tested on: T47D
MDA-N = tested on: MDA-N
HCT-15 = tested on: HCT-15
SK-OV-3 = tested on: SK-OV-3
Malme-3M = tested on: Malme-3M
NCI/ADR-RES = tested on: NCI/ADR-RES
HL-60 = tested on: HL-60
SK-MEL-5 = tested on: SK-MEL-5
HOP-92 = tested on: HOP-92
SF-268 = tested on: SF-268
OVCAR-4 = tested on: OVCAR-4
OVCAR-5 = tested on: OVCAR-5
IGROV-1 = tested on: IGROV-1
SK-MEL-28 = tested on: SK-MEL-28
NCI-H23 = tested on: NCI-H23
OVCAR-3 = tested on: OVCAR-3
U-251 = tested on: U-251
Hs-578T = tested on: Hs-578T
EKVX = tested on: EKVX
BT-549 = tested on: BT-549
TK-10 = tested on: TK-10
UACC-62 = tested on: UACC-62
LOX IMVI = tested on: LOX IMVI
PC-3 = tested on: PC-3
SK-MEL-2 = tested on: SK-MEL-2
SNB-19 = tested on: SNB-19
SNB-75 = tested on: SNB-75
SN12C = tested on: SN12C
SR = tested on: SR
CCRF-CEM = tested on: CCRF-CEM
SF-295 = tested on: SF-295
DU-145 = tested on: DU-145
MCF7 = tested on: MCF7
KM12 = tested on: KM12
HCC 2998 = tested on: HCC 2998
OVCAR-8 = tested on: OVCAR-8
HOP-62 = tested on: HOP-62
UACC-257 = tested on: UACC-257

Structure (SMILES): NC(C(F)(F)F)(C(F)(F)F)P(=O)(c1ccccc1)c1ccccc1
- GI50 (786-0): > 100 µM (inactive)
- GI50 (HCT-116): > 100 µM (inactive)
- GI50 (SF-539): > 100 µM (inactive)
- GI50 (MDA-MB-435): > 100 µM (inactive)
- GI50 (MOLT-4): > 100 µM (inactive)
- GI50 (NCI-H226): > 100 µM (inactive)
- GI50 (UO-31): > 100 µM (inactive)
- GI50 (ACHN): > 100 µM (inactive)
- GI50 (CAKI-1): > 100 µM (inactive)
- GI50 (NCI-H460): > 100 µM (inactive)
- GI50 (RXF 393): > 100 µM (inactive)
- GI50 (M14): > 100 µM (inactive)
- GI50 (HT-29): > 100 µM (inactive)
- GI50 (COLO 205): > 100 µM (inactive)
- GI50 (MDA-MB-231): > 100 µM (inactive)
- GI50 (RPMI-8226): > 100 µM (inactive)
- GI50 (SW-620): > 100 µM (inactive)
- GI50 (K562): > 100 µM (inactive)
- GI50 (A549): > 100 µM (inactive)
- GI50 (T47D): > 100 µM (inactive)
- GI50 (MDA-N): > 100 µM (inactive)
- GI50 (HCT-15): > 100 µM
- GI50 (SK-OV-3): > 100 µM (inactive)
- GI50 (Malme-3M): > 100 µM (inactive)
- GI50 (NCI/ADR-RES): > 100 µM (inactive)
- GI50 (HL-60): > 100 µM (inactive)
- GI50 (SK-MEL-5): > 100 µM (inactive)
- GI50 (HOP-92): > 100 µM (inactive)
- GI50 (SF-268): > 100 µM (inactive)
- GI50 (OVCAR-4): > 100 µM (inactive)
- GI50 (OVCAR-5): > 100 µM (inactive)
- GI50 (IGROV-1): > 100 µM (inactive)
- GI50 (SK-MEL-28): > 100 µM (inactive)
- GI50 (NCI-H23): > 100 µM (inactive)
- GI50 (OVCAR-3): > 100 µM (inactive)
- GI50 (U-251): > 100 µM (inactive)
- GI50 (Hs-578T): > 100 µM (inactive)
- GI50 (EKVX): > 100 µM (inactive)
- GI50 (BT-549): > 100 µM (inactive)
- GI50 (TK-10): > 100 µM (inactive)
- GI50 (UACC-62): > 100 µM (inactive)
- GI50 (LOX IMVI): > 100 µM (inactive)
- GI50 (PC-3): > 100 µM (inactive)
- GI50 (SK-MEL-2): > 100 µM (inactive)
- GI50 (SNB-19): > 100 µM (inactive)
- GI50 (SNB-75): > 100 µM (inactive)
- GI50 (SN12C): > 100 µM (inactive)
- GI50 (SR): > 100 µM (inactive)
- GI50 (CCRF-CEM): > 100 µM (inactive)
- GI50 (SF-295): > 100 µM (inactive)
- GI50 (DU-145): > 100 µM (inactive)
- GI50 (MCF7): > 100 µM (inactive)
- GI50 (KM12): > 100 µM (inactive)
- GI50 (HCC 2998): > 100 µM (inactive)
- GI50 (OVCAR-8): > 100 µM (inactive)
- GI50 (HOP-62): > 100 µM (inactive)
- GI50 (UACC-257): > 100 µM (inactive)

Structure (SMILES): Cc1cc2nc(N3C(=O)/C(=C/Cc4ccco4)N=C3c3ccccc3)sc2cc1C
- GI50 (786-0): 27.2 µM (inactive)
- GI50 (HCT-116): 17 µM (inactive)
- GI50 (SF-539): 41.1 µM (inactive)
- GI50 (MDA-MB-435): 7.53 µM (inactive)
- GI50 (MOLT-4): 20.3 µM (inactive)
- GI50 (UO-31): 26.6 µM (inactive)
- GI50 (ACHN): 26.7 µM (inactive)
- GI50 (CAKI-1): 44.4 µM (inactive)
- GI50 (NCI-H460): 23.6 µM (inactive)
- GI50 (RXF 393): 13.6 µM (inactive)
- GI50 (M14): 35.6 µM (inactive)
- GI50 (HT-29): 23.7 µM (inactive)
- GI50 (COLO 205): 28 µM (inactive)
- GI50 (MDA-MB-231): 51.5 µM (inactive)
- GI50 (RPMI-8226): 23.7 µM (inactive)
- GI50 (SW-620): 31.3 µM (inactive)
- GI50 (K562): 22.8 µM (inactive)
- GI50 (A549): 36.9 µM (inactive)
- GI50 (T47D): 31 µM (inactive)
- GI50 (MDA-N): 9.98 µM (inactive)
- GI50 (HCT-15): 30.5 µM
- GI50 (SK-OV-3): 92 µM (inactive)
- GI50 (NCI/ADR-RES): 27.6 µM (inactive)
- GI50 (HL-60): 23 µM (inactive)
- GI50 (SK-MEL-5): 22.3 µM (inactive)
- GI50 (HOP-92): 10.2 µM (inactive)
- GI50 (SF-268): 40.4 µM (inactive)
- GI50 (OVCAR-4): 29.5 µM (inactive)
- GI50 (OVCAR-5): 24.9 µM (inactive)
- GI50 (IGROV-1): 21.3 µM (inactive)
- GI50 (SK-MEL-28): 64.6 µM (inactive)
- GI50 (OVCAR-3): 22.3 µM (inactive)
- GI50 (U-251): 29 µM (inactive)
- GI50 (Hs-578T): 39.3 µM (inactive)
- GI50 (EKVX): 20.7 µM (inactive)
- GI50 (BT-549): 30.5 µM (inactive)
- GI50 (TK-10): 84.1 µM (inactive)
- GI50 (UACC-62): 23.3 µM (inactive)
- GI50 (LOX IMVI): 25.9 µM (inactive)
- GI50 (PC-3): 12.1 µM (inactive)
- GI50 (SK-MEL-2): 26.8 µM (inactive)
- GI50 (SNB-19): 49.7 µM (inactive)
- GI50 (SNB-75): 17.7 µM (inactive)
- GI50 (SN12C): 25.6 µM (inactive)
- GI50 (SR): 38.4 µM (inactive)
- GI50 (CCRF-CEM): 9.18 µM (inactive)
- GI50 (SF-295): 43.8 µM (inactive)
- GI50 (DU-145): 61.9 µM (inactive)
- GI50 (MCF7): 13.4 µM (inactive)
- GI50 (KM12): 25.9 µM (inactive)
- GI50 (HCC 2998): 24.6 µM (inactive)
- GI50 (OVCAR-8): 31.6 µM (inactive)
- GI50 (HOP-62): 54.7 µM (inactive)
- GI50 (UACC-257): 26 µM (inactive)
